Experimental data: patent US12569506B2, “Methods of treating osteonecrosis with LLP2A-bisphosphonate compounds” (The Regents of the University of California, priority 2016, dated 2026)
“Also recorded” adds a separate entry of the source. Each block holds one molecule with its values, some of them ahead of it.

Legend:
[1] = system: dexamethasone-treated mice; assay: Empty lacunae density in distal femoral epiphysis, 90 day model; type: in vivo, BALB/c mice; settings: distal femoral epiphysis, day 90; Dex only vs LLP2A-Ale 250, 500, 750 μg/kg groups (FIG. 8A-B)
Protocol: FIG. 8A-8B. Empty lacunae density of femurs from in dexamethasone-treated mice. Mice treated with placebo (PL), dexamethasone alone (Dex), Dex+250 μg/kg LLP2A-Ale, Dex+500 μg/kg LLP2A-Ale, or Dex+750 μg/kg LLP2A-Ale as described above for FIG. 7 were assessed for empty lacunae density within the distal femoral epiphysis region. Empty lacunae density was calculated by determining the number of empty lacunae in the entire distal femoral epiphysis region divided by the total number of osteocytes within the same region for each specimen. In the Dex only group, 75% of the samples had 10% or more empty lacunae, as compared to 44-62% of the samples in LLP2A-Ale-treated groups. A higher number of LLP2A-Ale 250 μg/kg, LLP2A-Ale 500 μg/kg, and LLP2A-Ale 750 μg/kg—treated samples had less than 10% empty lacunae as compared to Dex only treatment.
Both the right and left distal femurs were fixed in 10% neutral buffered formalin and were shaken for 3 days, then decalcified in 5% EDTA until the bones were fully decalcified. The specimens were then processed in ascending concentrations of ethanol and embedded in paraffin. Tissue sections were cut into 5 microns sections, stained with hematoxylin and eosin and evaluated for the presence of osteonecrosis by bright field microscopy at 20× magnification. […] Osteonecrosis was detected using modified criteria reported by Yang el al., (a mouse model for glucocorticoid-induced osteonecrosis: Effect of a steroid holiday. J Orthop Res. 2009; 27:169-75) which defines osteonecrosis as requiring all of the following changes: (1) empty lacunae, (2) pyknotic osteocyte nuclei in areas of empty lacunae and necrosis of adjacent bone marrow, (3) presence of excessive fat cells in the bone marrow, (4) cartilage degradation and (5) presence of fibrin thrombi in the blood vessels. In addition, trabecular bone volume, adipose volume, sinusoid volume and osteoblast surface at the distal femoral epiphyses were measured. Empty lacunae density was calculated by empty lacunae/total osteocytes within the entire distal femoral epiphysis region for each sample. […]

[2] = system: dexamethasone-treated mice; assay: Histological evaluation (H&E) of femoral epiphyses, 90 day model; type: in vivo, BALB/c mice; settings: Dex 4 mg/L in drinking water, day 90, femoral epiphyses (FIG. 9C-9F)
Protocol: FIG. 9A-9F. Histological evaluation of femurs from placebo- or dexamethasone-treated mice. Mice were treated with placebo (PL) or dexamethasone alone (Dex) as described above for FIG. 7. All mice were euthanized at day 90. Right and left distal femurs were fixed in 10% neutral buffer formalin and decalcified. The specimens were dehydrated, embedded in paraffin, cut into 5 micron sections and H&E stained. The sections were scored by two experienced histologists and then a consensus reading was performed by two additional histologists. FIG. 9A-9B: 4× (A) and 20× (B) magnifications of representative proximal femoral epiphyses in mice treated with placebo. (C) 4× magnification of a representative proximal femoral epiphyses in mice treated with dexamethasone (Dex) alone. FIGS. 9D, 9E, and 9F: 20× magnifications of representative proximal femoral epiphyses in mice treated with dexamethasone (Dex) alone.
FIG. 11A-11F. Histological evaluation of femurs from LLP2A-Ale-treated mice. Mice were treated with Dex+250 μg/kg LLP2A-Ale as described above for FIG. 7. All mice were euthanized at day 90. Right and left distal femurs were fixed in 10% neutral buffer formalin and decalcified. The specimens were dehydrated, embedded in paraffin, cut into 5 micron sections and H&E stained. The sections were scored by two experienced histologists and then a consensus reading was performed by two additional histologists. (A, D): 4× magnifications of representative proximal femoral epiphyses in mice treated with Dex+LLP2A-Ale. (B, C, E, F): 20× magnifications of representative proximal femoral epiphyses in mice treated with Dex+LLP2A-Ale.
Both the right and left distal femurs were fixed in 10% neutral buffered formalin and were shaken for 3 days, then decalcified in 5% EDTA until the bones were fully decalcified. The specimens were then processed in ascending concentrations of ethanol and embedded in paraffin. Tissue sections were cut into 5 microns sections, stained with hematoxylin and eosin and evaluated for the presence of osteonecrosis by bright field microscopy at 20× magnification. Experimental methods are also described in Mohan et al., Calif Tissue Int (2016) doi:10.1007/s00223-016-0195-6, which is incorporated herein by reference in its entirety for all purposes. Osteonecrosis was detected using modified criteria reported by Yang el al., (a mouse model for glucocorticoid-induced osteonecrosis: Effect of a steroid holiday. J Orthop Res. 2009; 27:169-75) which defines osteonecrosis as requiring all of the following changes: (1) empty lacunae, (2) pyknotic osteocyte nuclei in areas of empty lacunae and necrosis of adjacent bone marrow, (3) presence of excessive fat cells in the bone marrow, (4) cartilage degradation and (5) presence of fibrin thrombi in the blood vessels. In addition, trabecular bone volume, adipose volume, sinusoid volume and osteoblast surface at the distal femoral epiphyses were measured. Empty lacunae density was calculated by empty lacunae/total osteocytes within the entire distal femoral epiphysis region for each sample. Each section was scored by two experienced histologists, then a consensus reading was performed by two additional experienced histologists.

[3] = Body weight, 90 day model; type: in vivo, BALB/c mice; settings: all Dex treated animals vs placebo, day 7 up to day 90 (p<0.05)
Protocol: All the mice were euthanized at day 90. The body weights of all the study animals were assessed each week. If the study animals had 10% loss of body weight compared to the previous week, the dose of dexamethasone was reduced to 2 mg/L, until weight gain was observed. All of the animals were injected with calcein (30 mg/kg) and alizarin red (20 mg/kg) at 7 and 2 days before euthanization.

[4] = system: dexamethasone-treated mice; assay: 30 and 45 day prevention study: incidence of glucocorticoid-induced osteonecrosis; type: in vivo, BALB/c mice; settings: for Incidence of glucocorticoid-induced osteonecrosis: Dex alone 4 mg/L in drinking water; for Prevalence/incidence of glucocorticoid-induced osteonecrosis lesions (in words): 30 or 45 days, Dex + LLP2A-Ale 250 or 500 μg/kg, or Dex + 40 μg/kg hPTH five times a week (FIG. 12)
Protocol: FIG. 12. Reduction in incidence of glucocorticoid-induced osteonecrosis in mice treated with recombinant LLP2A-Ale. Mice were randomized into placebo (PL) (fresh water), dexamethasone (Dex) 4 mg/l in drinking water, Dex+250 μg/kg LLP2A-Ale, Dex+500 μg/kg LLP2A-Ale, or Dex+40 μg/kg hPTH (1-34) groups for a 30 day treatment period or a 45 day treatment period. The incidence of Dex-induced osteonecrosis was 57% on day 30 and 73% on day 45.
(§1) The efficacy of LLP2A-Ale and hPTH (1-34) was evaluated over a 30 and 45 day study using a mouse model of glucocorticoid-induced osteonecrosis. Seven week-old male BALB/c mice were randomized into Placebo group (fresh water), glucocorticoid only (4 mg/L dexamethasone (Dex) in drinking water), Dex+250 μg/kg LLP2A-Ale, Dex+500 μg/kg LLP2A-Ale, or Dex+40 μg/kg hPTH (administered five times a week) for 30 or 45 days. At day 30 or 45, the mice were sacrificed. Study endpoints included histological evidence of osteonecrosis, bone mass, and prevalent blood vessels (CD31 and Endomucin expression) in the distal femur, and was performed as set forth in Example 2. Non-parametric Kruskal-Wallis tests were used to determine the differences between the groups.

[5] = system: dexamethasone-treated mice; assay: 30 and 45 day prevention study: trabecular bone histology of distal femur epiphyses; type: in vivo, BALB/c mice
Protocol: as §1

[6] = system: CD31 and Endomucin expression; assay: 30 and 45 day prevention study: blood vessels in the distal femur (CD31 and Endomucin expression); type: in vivo, BALB/c mice
Protocol: as §1

α4β1 integrin = α4β1 integrin (Homo sapiens, UniProt P05556+P13612); settings: Liu 2006; Peng 2006; DeNardo 2009; cited from earlier work
α4β1 integrin, sequence (P13612 34-1032): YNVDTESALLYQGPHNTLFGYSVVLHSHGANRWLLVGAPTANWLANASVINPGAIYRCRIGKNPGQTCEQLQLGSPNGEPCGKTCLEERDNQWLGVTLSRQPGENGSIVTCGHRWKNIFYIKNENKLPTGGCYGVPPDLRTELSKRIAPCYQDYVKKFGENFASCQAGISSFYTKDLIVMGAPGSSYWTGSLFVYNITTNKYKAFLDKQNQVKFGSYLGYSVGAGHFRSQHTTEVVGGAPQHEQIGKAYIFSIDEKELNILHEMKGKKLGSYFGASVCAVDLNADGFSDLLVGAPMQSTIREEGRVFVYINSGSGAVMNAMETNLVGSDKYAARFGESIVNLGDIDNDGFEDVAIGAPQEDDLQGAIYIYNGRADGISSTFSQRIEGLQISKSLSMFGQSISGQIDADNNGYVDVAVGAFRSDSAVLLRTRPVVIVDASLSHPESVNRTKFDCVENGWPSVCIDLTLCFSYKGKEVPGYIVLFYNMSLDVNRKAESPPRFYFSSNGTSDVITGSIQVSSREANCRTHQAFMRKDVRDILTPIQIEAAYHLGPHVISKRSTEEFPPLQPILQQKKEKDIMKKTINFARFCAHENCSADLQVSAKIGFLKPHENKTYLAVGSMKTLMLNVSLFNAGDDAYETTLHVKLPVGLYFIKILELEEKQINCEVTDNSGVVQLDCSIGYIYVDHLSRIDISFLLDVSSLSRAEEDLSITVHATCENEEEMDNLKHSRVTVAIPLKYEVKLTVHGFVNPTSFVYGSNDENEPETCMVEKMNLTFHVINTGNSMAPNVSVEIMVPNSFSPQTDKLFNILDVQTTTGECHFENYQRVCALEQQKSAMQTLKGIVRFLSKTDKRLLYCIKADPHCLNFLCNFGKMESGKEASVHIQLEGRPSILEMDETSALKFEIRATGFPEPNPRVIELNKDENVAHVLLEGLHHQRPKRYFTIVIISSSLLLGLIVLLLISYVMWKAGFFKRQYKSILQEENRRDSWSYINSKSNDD
α4β1 integrin, sequence (P05556 21-798): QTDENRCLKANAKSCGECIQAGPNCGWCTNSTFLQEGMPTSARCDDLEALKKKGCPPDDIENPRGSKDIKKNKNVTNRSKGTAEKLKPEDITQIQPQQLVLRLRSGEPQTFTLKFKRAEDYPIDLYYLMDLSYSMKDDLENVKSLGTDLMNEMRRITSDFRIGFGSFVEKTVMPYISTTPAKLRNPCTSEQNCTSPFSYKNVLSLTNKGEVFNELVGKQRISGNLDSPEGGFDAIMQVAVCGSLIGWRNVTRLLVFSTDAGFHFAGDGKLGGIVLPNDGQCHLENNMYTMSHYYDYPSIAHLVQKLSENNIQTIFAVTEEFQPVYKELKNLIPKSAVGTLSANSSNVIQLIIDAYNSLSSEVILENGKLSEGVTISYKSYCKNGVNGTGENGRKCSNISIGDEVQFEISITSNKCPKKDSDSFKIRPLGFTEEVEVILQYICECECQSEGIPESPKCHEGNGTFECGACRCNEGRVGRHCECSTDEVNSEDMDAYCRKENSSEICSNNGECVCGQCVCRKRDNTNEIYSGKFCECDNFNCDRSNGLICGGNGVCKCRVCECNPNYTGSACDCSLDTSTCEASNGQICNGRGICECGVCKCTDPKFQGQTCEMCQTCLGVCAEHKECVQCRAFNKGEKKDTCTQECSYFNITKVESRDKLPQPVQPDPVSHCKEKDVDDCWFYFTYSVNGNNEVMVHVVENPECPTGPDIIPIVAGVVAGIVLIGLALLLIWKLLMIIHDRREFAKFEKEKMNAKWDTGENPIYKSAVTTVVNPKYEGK

[7] = system: glucocorticoid-treated mice; assay: 56 day mouse model of glucocorticoid-induced osteonecrosis: femur blood vessel / vascular density by microCT; type: in vivo
Protocol: FIG. 2. Blood vessel density of femurs from glucocorticoid-treated mice. 4 month old male mice were treated glucocorticoid (“GC”) or placebo for 56 days. At day 28 a group of glucocorticoid-treated mice were treated with LLP2A-Ale or PTH for an additional 28 days.
FIG. 3. Vascular density of femurs from glucocorticoid-treated mice. 4 month old male mice were treated with glucocorticoid or placebo for 56 days. At day 28 a group of glucocorticoid-treated mice were treated with LLP2A-Ale or PTH for an additional 28 days. At day 56 animals were given a contrast agent and then sacrificed and then the animals femurs were decalcified and then scanned by microCT.
The efficacy of LLP2A-Ale was evaluated using a mouse model of glucocorticoid-induced osteonecrosis. 4-month-old male mice were treated for 56 days with glucocorticoids. At day 28, a group of mice was treated with either LLP2A-Ale or PTH for an additional 28 days. Blood vessel density of the femur was measured after sacrifice by microCT according to published methods. […] Vascular density of the femurs of glucocorticoid-treated mice subsequently treated with LLP2A-Ale or PTH was also assessed by giving the mice a contrast agent, then sacrificing the mice, decalcifying the femurs, and scanning the femurs by microCT. […] Without being bound to a particular theory, it is believed that LLP2A-Ale promotes increased vascularity by bringing MSCs to the bone that is turning over with osteonecrosis, which stimulates new blood vessel formation, which in turn is needed to stimulate new bone formation in the osteonecrotic bone.

[8] = system: glucocorticoid-treated mice; assay: Trabecular bone volume in glucocorticoid-treated mice; type: in vivo; settings: GC 28 days then treatment; change from day 28 to 56, measured in vivo (FIG. 6 left)
Protocol: FIG. 6. Trabecular bone volume in glucocorticoid-treated mice. Mice were treated for 28 days with glucocorticoid (GC), then treated with either LLP2A-Ale, PTH, or LLP2A-Ale+PTH. The outcome measure was the change in trabecular bone mass from day 28 to 56, measured in vivo at the distal femur (left panel) and change in trabecular bone mass for the vertebral trabecular bone volume (right panel).
Changes in trabecular bone mass during the treatment period for the distal femur and vertebral trabecular bone volume were measured.

Trabecular thickness ([5]; Dex vs placebo, day 30 and 45 (p<0.05)): significantly reduced
Trabecular number ([5]; Dex, day 45 (p<0.05)): significantly reduced
Staining intensity of CD31 and Endomucin expression ([6]; Dex vs LLP2A-Ale, hPTH (1-34) or placebo, day 30 and 45 (data not shown)): decreased the staining intensity
Molecule: C[C@@H]1C[C@H]2[C@@H]3CCC4=CC(=O)C=C[C@]4(C)[C@@]3(F)[C@@H](O)C[C@]2(C)[C@@]1(O)C(=O)CO [Dex, dexamethasone]
Samples with 10% or more empty lacunae [1]: 75%
Histological findings of osteonecrosis with dexamethasone alone [2]: Evidence of osteonecrosis was present throughout the epiphyses of the distal femurs; also recorded: necrotic trabeculae characterized by large empty lacunae
Histological findings of osteonecrosis with dexamethasone alone ([2]; listed as dexamethasone): most of the bone marrow space was occupied by fat
Body weight [3]: significantly lower
Incidence of glucocorticoid-induced osteonecrosis ([4]; day 30): 57%
Incidence of glucocorticoid-induced osteonecrosis ([4]; day 45): 73%

Molecule: Cc1ccccc1NC(=O)Nc1ccc(CC(=O)N[C@@H](CCCCNC(=O)/C=C/c2cccnc2)C(=O)N[C@@H](CCCC(=O)O)C(=O)NC2(C(N)=O)CCCCC2)cc1 [LLP2A]
Binding to α4β1 integrin (affinity and specificity in words) (α4β1 integrin): high-affinity, high-specificity

Molecule: hPTH (1-34): human PTH (1-34), 40 μg/kg five times a week in Example 3 (SVSEIQLMHNLGKHLNSMERVEWLRKKLQDVHNF; Parathyroid hormone; UniProt P01270 32-65, looked up, fragment)
Prevalence/incidence of glucocorticoid-induced osteonecrosis lesions (in words) [4]: prevented incident GC-induced osteonecrosis lesions; also recorded: prevented glucocorticoid-induced osteonecrotic lesions
Prevalence/incidence of glucocorticoid-induced osteonecrosis lesions (in words) ([4]; listed as hPTH): reduced the incidence and severity of osteonecrosis
Trabecular bone volume ([5]; day 30 and 45, Dex vs placebo, treated vs Dex (p<0.05)): higher bone volume
Trabecular separation ([5]; vs Dex group, day 30 and 45 (p<0.05)): lower trabecular separation
Vascular integrity of the distal femur ([6]; 30 and 45 day study, conclusion): maintained the vascular integrity

B1: PTH: parathyroid hormone, anabolic agent; given 20 ug/kg 5× a week in Example 1 (peptide, UniProt P01270 32-115, looked up)
Parathyroid hormone: SVSEIQLMHNLGKHLNSMERVEWLRKKLQDVHNFVALGAPLAPRDAGSQRPRKKEDNVLVESHEKSLGEADKADVNVLTKAKSQ
modifications: Parathyroid hormone
Blood vessel density of the femur ([7]; 4 month old male mice, GC 56 days, LLP2A-Ale or PTH from day 28 for 28 days, microCT after sacrifice (FIG. 2)): significantly different from all other groups
Vascular density of femurs ([7]; contrast agent at day 56, decalcified femurs scanned by microCT (FIG. 3), vs GC alone): did not exhibit a significant change in vascular density; also recorded: did not significantly change vascular density
Change in trabecular bone mass/volume at the distal femur [8]: increased the trabecular bone volume to the baseline/sham level
